Results reported in US20210285940A1, “Improved Fluorescent Resonance Energy Transfer-Based Biosensor Proteins And Their Methods of Use Thereof” (Pebble Labs Inc., priority 2018, published 2021).
Where “and” joins values, the source holds several entries; their conditions need not be identical. Identical values can stand only once.

Assays:
[1] = TqLPNG fluorescence emission response towards BAI-2 binding at different NaCl concentrations; type: biochemical
Experimental: FIG. 8 (A-B): Response of the fluorescence emission spuctrum of TqLPNGh towards BAI-2 binding at different concentrations.of sodium chloride. Emission spectra (solid lines) were deconvoluted into the donor (dotted lines) and the acceptor (dashed lines) emission components, and the evaluation for the FRET efficiency (E values) was performed through enhancement in the acceptor emission referenced to the directly excited acceptor emission (the grey lines) as described under Materials and Methods. The spectra were recorded by using an excitation wavelength of 440 nm. Measurements were performed in a 50 mM HEPES (pH 7.5)/0.1 mM EDTA buffer (containing the specified amount of NaCl) with 50 nM TLPNGh.
FIG. 9: An example of fluorescence emission spectrum of TqLPNGh and its response to BAI-2 binding. (9A) Emisson spectra of 50 nM TqLPNGh in 50 mM HEPES (pH 7.5)/0.1 mM EDTA buffer in the absence (the grey line) and in the presence of 10 μM BAI-2 (the black line). The spectra were recorded by using a 440 nm excitation wavelength. (9B) Dependence of the BAI-2 binding TqLPNGh emission response (expressed as decrease in acceptor-to-donor emission ratio induced by BAI-2 binding) on concentration of NaCl.
TqLPNG fluorescence response towards BAI-2 binding was examined at different concentrations of NaCl (see FIG. 8). At any salt concentration, BAI-2 binding yielded an increase in the biosensor donor emission and the corresponding decrease in the acceptor emission, originated from the ligand-induced decrease in FRET between the donor and the acceptor chromophores. Indeed, for any salt concentration BAI-2 binding caused a decrease in FRET efficiency (follow the E-values in FIG. 8) and associated decrease in the acceptor-to-donor emission ratio. […] The observable BAI-2 binding amplitude was maximal at low salt buffer (−49%), strongly dropped at 0.15 M and became too small (for BAI-2 quantification applications) at 0.3 M and higher NaCl concentrations. […]
A Cary 300 spectrophotometer (Agilent/Varian Technologies) and FluoroMax fluorescence spectrophotometer (Horiba Scientific) equipped with Peltier-based temperature controlled cell holders were used for absorbance and fluorescence measurements, respectively. […] Fluorescence emission spectra were recorded in a 4 mm fluorescence cell by using 2 nm slit width at both excitation and emission monochromators. Typically, 50 nM protein concentrations were employed for fluorescence measurements. […]
FRET efficiency in TqLPNG was determined under variety of solution conditions by measurements of the emission spectra of TqLPNG (DA-species) alternatively excited at 440 nm and 505 nm. […]

[2] = Titration of TqLPNGh biosensor with BAI-2 monitored through acceptor-to-donor emission ratio; type: binding
Experimental: FIG. 13: Titration of TqLPNGh biosensor with autoinducer BAI-2 monitored through acceptor-to-donor emission ratio (A-to-D ratio). Measurements of TqLPNGh fluorescence emission spectra were performed in 50 mM HEPES (pH 7.5)/0.1 mM EDTA/0.4 mM boric acid//0.15 M NaCl buffer using 50 nM TqLPNGh. Emission spectra of TqLPNG were recorded by using 440 nm excitation. The values for the A-to-D ratio for the BIA-2 titration (the filled circles) were fitted to the phenomenological Hill equation to get BAI-2 concentration corresponding to the half decrease in A-to-D ratio (C50%). The values for A-to-D ratio corresponding to the control titration, i.e., titration of TqLPNGh with the ligand-free plain buffer, are shown as unfilled circles.
The values for D-to-A fluorescence ratio values BAI-2 concentration were plotted and then fitted with the phenomenological Hill equation or with the simple single site binding model. […] The presence of boric acid in the assay buffer (i.e., 50 mM HEPES (pH 7.5)/0.1 mM EDTA/0.15 M NaCl/0.4 mM boric acid) may be beneficial. Deficiency in boric acid may cause strong reduction in the apparent ligand affinity, yielding enhanced Kd-value and, therefore, a strong decrease in biosensor sensitivity.]
A Cary 300 spectrophotometer (Agilent/Varian Technologies) and FluoroMax fluorescence spectrophotometer (Horiba Scientific) equipped with Peltier-based temperature controlled cell holders were used for absorbance and fluorescence measurements, respectively. To characterize fluorescent proteins, all measurements (including TqLPNGh titration with BAI-2) were performed at 20° C. with proteins prepared in 50 mM HEPES buffer (pH 7.5)/0.1 mM EDTA, containing different NaCl concentrations. Fluorescence emission spectra were recorded in a 4 mm fluorescence cell by using 2 nm slit width at both excitation and emission monochromators. Typically, 50 nM protein concentrations were employed for fluorescence measurements. The protein stock solutions were prepared in 50 mM HEPES buffer (pH 7.5)/0.1 mM EDTA/0.3 M NaCl at 2 μM (for the TqLPNG) or 10 μM (for Tqh or NGh) concentration.

[3] = Prolonged storage of TqLPNG examined through size-exclusion chromatography; type: physicochemical
Experimental: FIG. 12: Accumulation of high order associates of TqLPNGh during its prolonged storage in the salt-free 50 mM HEPES (pH 7.5)/0.1 mM EDTA buffer at 4° C., examined through size-exclusion chromatography. The purified TqLPNG preparation (at ˜ 9 μM protein concentration) was stored at 4° C. in plain He buffer (containing 0.25 mM DTT and 0.25 mM TCEP) at 4° C. for about 3 weeks. 0.25 mL of the TqLPNGh solution was then mixed the equal volume of the appropriate buffer to get 0, 0.15 or 0.3 M NaCl final concentration. Following 1-2 hrs incubation (at 4° C.), the diluted protein was injected into Superdex 20010/300 column equlibrated with He, He+0.15 M NaCl or He+0.3 M NaCl buffer, respectively. The protein elution was detected through absorbance at 280 nm. The flow rate was 0.5 mL/min. The large overlapping peaks at 9-12 elution volume correspond to high order TqLPNG associates. Positions of peakes corresponding to TqLPNG dimer or monomer are marked with the arrows.
The reasonable question that follows deciphering the origin of the TqLPNG fluorescence emission response towards BAI-2 binding is to understand the optimal conditions for the biosensor-based determination of BAI-2 concentrations. Low NaCl conditions provide an increased change in acceptor-to-donor emission ratio for the BAI-2 binding favorable for accurate BAI-2 quantification. […] Thus, there should by a compromise between the binding amplitude of the observable signal (i.e., the decrease in the acceptor-to-donor emission ratio corresponding to fully saturated biosensor) and stability of the TqLPNG preparation (against the formation of high order associates).

[4] = Control experiments for photo-bleaching; type: physicochemical; conditions: three consecutive spectrum records, 20° C.
Experimental: For measurements associated with examination of ligand-induced response of TqLPNG biosensor fluorescence emission 0.1 mM BAI-2 stock solution was freshly prepared and contained 1 mM DPD and 4 mM boric acid in 50 mM HEPES buffer (pH 7.5) (Semmelhack et al., 2005). To test the biosensor fluorescence response for BAI-2 binding 400 μL samples having the same biosensor concentration (50 nM) and variable BAI-2 concentrations in 50 mM HEPES (pH 7.5)/0.4 mM boric acid/0.1 mM EDTA/0.15 M NaCl were prepared from the protein and the ligand stock solutions using analytical balances. Fluorescence emission spectra were taken following 3 min temperature equilibration of the sample within the temperature controlled cell holder (set for 20° C.).

TqLPNG: tripartite FRET biosensor fusion mTurquoise2-(24-365)LuxP-mNeonGreen; TqLPNGh carries C-terminal His6 tag (SEQ ID NO. 2), SEQ ID NO. 3 lacks it
magnitude of decrease of the acceptor-to-donor emission ratio on BAI-2 titration ([1]; 50 mM HEPES (pH 7.5)/0.4 mM boric acid/0.1 mM EDTA, 0.15 M NaCl): ~17% | observable BAI-2 binding amplitude ([1]; 0.3 M and higher NaCl): too small | decrease in the acceptor to donor emission ratio upon autoinducer-2 binding ([1]; adjustable fluorescence response, maximum): up to 48% | observable BAI-2 binding amplitude (decrease in acceptor-to-donor emission ratio, fully saturated) ([1]; low salt buffer): −49% | EC50 ([2]; 50 nM TqLPNG, 50 mM HEPES (pH 7.5)/0.1 mM EDTA/0.15 M NaCl/0.4 mM boric acid, Hill equation fit, read-out: BAI-2 concentration corresponding to the half-transition (C50%) in emission response): 24 ± 1 nM | Kd ([2]; 50 nM TqLPNG, 50 mM HEPES (pH 7.5)/0.1 mM EDTA/0.15 M NaCl/0.4 mM boric acid, single site binding model, read-out: BAI-2•TqLPNG dissociation constant (Kd)): 9 nM and 10 nM and ~10 nM | higher sensitivity towards BAI-2 concentration as compared to mCLPY biosensor ([2]; from dissociation constants 10 nM versus 270 nM): more than 10 fold | stability against formation of high order associates ([3]; 0.3 M NaCl, prolonged storage at 4° C.): no formation of ‘inactive’ high-order associates | stability against formation of high order associates ([3]; HEPES (pH 7.5) buffer containing 0.15 M NaCl): good stability | stability against formation of high order associates ([3]; prolonged storage in low salt buffer, 4° C.): accumulation of high-order TqLPNG associates | changes in the fluorescence spectrum (photo-bleaching control) [4]: no changes
